According to patent publication US12187728B2 (Raze Therapeutics, Inc., priority 2015, dated 2025):

Target: T1, Human MTHFD2 (Homo sapiens, UniProt P13995)
T1 construct: residues 36-350 in Uniport ID P13995; His6 (N); made in house; host or cells: E. coli
T1 sequence (P13995 36-350): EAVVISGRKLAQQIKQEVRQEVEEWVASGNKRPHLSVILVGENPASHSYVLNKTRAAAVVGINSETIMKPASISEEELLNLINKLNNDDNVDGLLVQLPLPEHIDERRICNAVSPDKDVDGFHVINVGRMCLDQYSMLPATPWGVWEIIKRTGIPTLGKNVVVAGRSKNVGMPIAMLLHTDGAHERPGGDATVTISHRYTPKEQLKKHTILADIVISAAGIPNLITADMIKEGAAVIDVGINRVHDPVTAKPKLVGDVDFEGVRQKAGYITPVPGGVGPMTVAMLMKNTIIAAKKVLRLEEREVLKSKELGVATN
Experiment: MTHFD2 Activity Assay (dehydrogenase activity, diaphorase/resazurin coupled fluorescence)
Type: biochemical
Settings: inhibitory activity (IC50 and/or binding constant); 0.2 nM MTHFD2, 11 concentrations
Summary of the method: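 Resorufin fluorescence (ex 525, em 598 nm) reports NADH formed by the dehydrogenase via diaphorase coupling. Enzyme (0.2 nM, residues 36-350, N-His6) sat with compound 15 min before 70 μM CH2-THF and 1 mM NAD+ started a 30 min reaction. IC50s come from 4-parameter fits over 11 concentrations.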

SMILES	IC50 [nM]
Cn1c(CCN2CCOCC2)nc2c1c(=O)n(Cc1cc3ccccc3[nH]1)c(=O)n2C [Example 226, 1-((1H-indol-2-yl)methyl)-3,7-dimethyl-8-(2-morpholinoethyl)-1H-purine-2,6(3H,7H)-dione]	10 to 1000
Cn1c(N[C@H]2CCC[C@@H](O)C2)nc2c1c(=O)n(Cc1ccc(Cl)c(Cl)c1)c(=O)n2C (single isomer, unassigned) [Example 79, 1-(3,4-dichlorobenzyl)-8-((1S,3R)-3-hydroxycyclohexylamino)-3,7-dimethyl-1H-purine-2,6(3H,7H)-dione or 1-(3,4-dichlorobenzyl)-8-((1R,3S)-3-hydroxycyclohexylamino)-3,7-dimethyl-1H-purine-2,6(3H,7H)-dione]	10 to 1000
Cn1cnc2c1c(=O)n(Cc1ccc3cc[nH]c3c1)c(=O)n2C [Example 263, 1-((1H-indol-6-yl)methyl)-3,7-dimethyl-1H-purine-2,6(3H,7H)-dione]	5000 to 10000
Cn1c(NCC(=O)O)nc2c1c(=O)n(Cc1ccc(Cl)c(Cl)c1)c(=O)n2C [Example 134, 2-(1-(3,4-dichlorobenzyl)-3,7-dimethyl-2,6-dioxo-2,3,6,7-tetrahydro-1H-purin-8-ylamino)acetic acid]	1000 to 5000
CCn1c(=O)n(Cc2cc3c(Cl)cccc3[nH]2)c(=O)c2c1nc(C(C)N)n2C (stereo not shown) [Example 441, 8-(1-aminoethyl)-1-((4-chloro-1H-indol-2-yl)methyl)-3-ethyl-7-methyl-1H-purine-2,6(3H,7H)-dione]	10 to 1000
CN(C)CCNc1nc2c(c(=O)n(Cc3ccc(Cl)c(Cl)c3)c(=O)n2C)n1C [Example 40, 1-[(3,4-dichlorophenyl)methyl]-8-{[2-(dimethylamino)ethyl]amino}-3,7-dimethyl-2,3,6,7-tetrahydro-1H-purine-2,6-dione]	1000 to 5000
Cn1c(N[C@@H]2CCOC2)nc2c1c(=O)n(Cc1ccc(Cl)c(Cl)c1)c(=O)n2C [Example 63, 1-[(3,4-dichlorophenyl)methyl]-3,7-dimethyl-8-{[(3R)-oxolan-3-yl]amino}-2,3,6,7-tetrahydro-1H-purine-2,6-dione]	10 to 1000
Cn1c(CC(=O)O)nc2c1c(=O)n(Cc1ccc(Cl)c(Cl)c1)c(=O)n2C [Example 101, 2-(1-(3,4-dichlorobenzyl)-3,7-dimethyl-2,6-dioxo-2,3,6,7-tetrahydro-1H-purin-8-yl)acetic acid]	5000 to 10000
Cn1c(Nc2nccc(O)n2)nc2c1c(=O)n(Cc1ccc(Cl)c(Cl)c1)c(=O)n2C [Example 138, 1-(3,4-dichlorobenzyl)-8-(4-hydroxypyrimidin-2-ylamino)-3,7-dimethyl-1H-purine-2,6(3H,7H)-dione]	10 to 1000
Cn1c(N[C@H](CO)CC2CCCCC2)nc2c1c(=O)n(Cc1ccc(Cl)c(Cl)c1)c(=O)n2C [Example 121, (S)-8-(1-cyclohexyl-3-hydroxypropan-2-ylamino)-1-(3,4-dichlorobenzyl)-3,7-dimethyl-1H-purine-2,6(3H,7H)-dione]	10 to 1000
Cn1c(Nc2ccc(CO)cc2)nc2c1c(=O)n(Cc1ccc(Cl)c(Cl)c1)c(=O)n2C [Example 298, 1-(3,4-dichlorobenzyl)-8-((4-(hydroxymethyl)phenyl)amino)-3,7-dimethyl-3,7-dihydro-1H-purine-2,6-dione]	10 to 1000
C[C@H](CCO)Nc1nc2c(c(=O)n(Cc3ccc(Cl)cc3)c(=O)n2C)n1C [Example 26, 1-[(4-chlorophenyl)methyl]-8-{[(2R)-4-hydroxybutan-2-yl]amino}-3,7-dimethyl-2,3,6,7-tetrahydro-1H-purine-2,6-dione]	1000 to 5000
Cn1c(Nc2cccc(CC(=O)O)c2)nc2c1c(=O)n(Cc1ccc(Cl)c(Cl)c1)c(=O)n2C [Example 287, 2-(3-((1-(3,4-dichlorobenzyl)-3,7-dimethyl-2,6-dioxo-2,3,6,7-tetrahydro-1H-purin-8-yl)amino)phenyl)acetic acid]	10 to 1000
Cn1c(NCCCO)nc2c1c(=O)n(Cc1ccc(C(F)(F)F)cc1)c(=O)n2C [Example 56, 8-[(3-hydroxypropyl)amino]-3,7-dimethyl-1-{[4-(trifluoromethyl)phenyl]methyl}-2,3,6,7-tetrahydro-1H-purine-2,6-dione]	5000 to 10000
COC(=O)c1cc(Cn2c(=O)c3c(nc(NCCCO)n3C)n(C)c2=O)ccc1Cl [Example 165, Methyl 2-chloro-5-({8-[(3-hydroxypropyl)amino]-3,7-dimethyl-2,6-dioxo-2,3,6,7-tetrahydro-1H-purin-1-yl}methyl)benzoate]	1000 to 5000
Cn1c(=O)n(Cc2ccc(Cl)c(Cl)c2)c(=O)c2c1nc(NC1CCCC(C(=O)O)C1)n2CCC(=O)O (stereo not shown) [Example 341, 3-(7-(2-carboxyethyl)-1-(3,4-dichlorobenzyl)-3-methyl-2,6-dioxo-2,3,6,7-tetrahydro-1H-purin-8-ylamino)cyclohexanecarboxylic acid]	5000 to 10000
Cn1c(Nc2ccc3c(c2)C(CCO)CC3)nc2c1c(=O)n(Cc1ccc(Cl)c(Cl)c1)c(=O)n2C (stereo not shown) [Example 323, 1-(3,4-dichlorobenzyl)-8-((3-(2-hydroxyethyl)-2,3-dihydro-1H-inden-5-yl)amino)-3,7-dimethyl-1H-purine-2,6(3H,7H)-dione]	1000 to 5000
Cn1c(NC[C@@H]2CCCO2)nc2c1c(=O)n(Cc1ccc(C(F)(F)F)cc1)c(=O)n2C [Example 105, (S)-3,7-dimethyl-8-((tetrahydrofuran-2-yl)methylamino)-1-(4-(trifluoromethyl)benzyl)-1H-purine-2,6(3H,7H)-dione]	> 10000
Cn1c(C2CCCNC2)nc2c1c(=O)n(Cc1cc3c(Cl)cccc3[nH]1)c(=O)n2C (stereo not shown) [Example 391, 1-[(4-chloro-1H-indol-2-yl)methyl]-3,7-dimethyl-8-(3-piperidyl)purine-2,6-dione]	10 to 1000
C[C@@H](CCO)Nc1nc2c(c(=O)n(Cc3ccc(Cl)c(Cl)c3)c(=O)n2C)n1C [Example 32, 1-[(3,4-dichlorophenyl)methyl]-8-{[(2S)-4-hydroxybutan-2-yl]amino}-3,7-dimethyl-2,3,6,7-tetrahydro-1H-purine-2,6-dione]	10 to 1000
Cn1c(NC2CCCC(CO)C2)nc2c1c(=O)n(Cc1ccc(Cl)c(Cl)c1)c(=O)n2C (racemic) [Example 254, (±)-1-(3,4-dichlorobenzyl)-8-(3-(hydroxymethyl)cyclohexylamino)-3,7-dimethyl-1H-purine-2,6(3H,7H)-dione]	10 to 1000

More lines, now with the values ahead:

IC50 [nM]	SMILES
10 to 1000	Cc1ccc(Nc2nc3c(c(=O)n(Cc4cc5c(Cl)cccc5[nH]4)c(=O)n3C)n2C)nc1CCC(=O)O [Example 377, 3-(6-(1-((4-chloro-1H-indol-2-yl)methyl)-3,7-dimethyl-2,6-dioxo-2,3,6,7-tetrahydro-1H-purin-8-ylamino)-3-methylpyridin-2-yl)propanoic acid]
10 to 1000	Cn1c(C(N)C2CC2)nc2c1c(=O)n(Cc1cc3c(Cl)cccc3[nH]1)c(=O)n2C (stereo not shown) [Example 444, 8-[amino(cyclopropyl)methyl]-1-[(4-chloro-1H-indol-2-yl)methyl]-3,7-dimethyl-purine-2,6-dione]
10 to 1000	Cn1c(Nc2ccnc(CCC(N)=O)n2)nc2c1c(=O)n(Cc1cc3c(Cl)cccc3[nH]1)c(=O)n2C [Example 378, 3-(4-(1-((4-chloro-1H-indol-2-yl)methyl)-3,7-dimethyl-2,6-dioxo-2,3,6,7-tetrahydro-1H-purin-8-ylamino)pyrimidin-2-yl)propanamide]
10 to 1000	Cn1c(Nc2ccncc2)nc2c1c(=O)n(Cc1[nH]c3ccccc3c1Cl)c(=O)n2C [Example 311, 1-((3-chloro-1H-indol-2-yl)methyl)-3,7-dimethyl-8-(pyridin-4-ylamino)-1H-purine-2,6(3H,7H)-dione]
10 to 1000	Cc1ccc(Nc2nc3c(c(=O)n(Cc4cc5c(Cl)cccc5[nH]4)c(=O)n3C)n2C)cn1 [Example 383, 1-((4-chloro-1H-indol-2-yl)methyl)-3,7-dimethyl-8-(6-methylpyridin-3-ylamino)-1H-purine-2,6(3H,7H)-dione]
1000 to 5000	Cn1c(Nc2ncn[nH]2)nc2c1c(=O)n(Cc1cc3cc(Cl)ccc3[nH]1)c(=O)n2C [Example 207, 8-(1H-1,2,4-triazol-5-ylamino)-1-((5-chloro-1H-indol-2-yl)methyl)-3,7-dimethyl-1H-purine-2,6(3H,7H)-dione]
10 to 1000	Cn1c(Nc2ccc(C(N)=O)cc2)nc2c1c(=O)n(Cc1cc3c(Cl)cccc3[nH]1)c(=O)n2C [Example 420, 4-[[1-[(4-chloro-1H-indol-2-yl)methyl]-3,7-dimethyl-2,6-dioxo-purin-8-yl]amino]benzamide]
10 to 1000	Cn1c(N[C@H]2C[C@H](CO)C2)nc2c1c(=O)n(Cc1cc3c(Cl)cccc3[nH]1)c(=O)n2C [Example 305, 1-((4-chloro-1H-indol-2-yl)methyl)-8-((1R,3R)-3-(hydroxymethyl)cyclobutylamino)-3,7-dimethyl-1H-purine-2,6(3H,7H)-dione]
10 to 1000	CNC(=O)CCc1nccc(Nc2nc3c(c(=O)n(Cc4cc5c(Cl)cccc5[nH]4)c(=O)n3C)n2C)n1 [Example 415, 3-(4-(1-((4-chloro-1H-indol-2-yl)methyl)-3,7-dimethyl-2,6-dioxo-2,3,6,7-tetrahydro-1H-purin-8-ylamino)pyrimidin-2-yl)-N-methylpropanamide]
10 to 1000	Cc1c(Cn2c(=O)c3c(nc(Nc4ccncc4)n3C)n(C)c2=O)[nH]c2ccccc12 [Example 340, 3,7-dimethyl-1-((3-methyl-1H-indol-2-yl)methyl)-8-(pyridin-4-ylamino)-1H-purine-2,6(3H,7H)-dione]
